Source: patent US12318361B2, “Methods for treating cardiovascular diseases” (Olatec Therapeutics LLC, priority 2017, dated 2025)

Test system: male CD-1 mice, experimental AMI
Assay: Experimental mouse AMI model (30 min ischemia, 24 h reperfusion), dose response and delayed dosing, Example 9
Type: in vivo
Details: for Infarct size, Change (%) relative to saline group / Infarct size, mean: 24 h; for AWDT, mean / AWST, mean / LVEDD, mean / LVEF, mean / LVESD, mean / LVFS, mean / PWDT, mean / PWST, mean: echo at 24 h
Method: Objectives: To determine the efficacy of, (1) a single dose of OLT1177™ (6, 60 and 600 mg/kg) administered at the time of reperfusion (Part A) and, (2) a single dose of 60 mg/kg OLT1177™ administered 60, 120 or 180 minutes after reperfusion in an experimental mouse AMI model.
Methodology: Male CD-1 mice underwent transient surgical ligation of the left coronary artery for 30 minutes followed by reperfusion for 24 hours. A single dose of OLT1177™ (6, 60, or 600 mg/kg) or matching vehicle was administered intraperitoneally (IP) at time of reperfusion (N=5-9/group, Study Part A) or OLT1177™ (60 mg/kg) after a 60-, 120- or 180-minute delay (N=4-7/group, Study Part B). Echocardiography was performed to measure left ventricular (LV) fractional shortening (FS). Infarct size was measured at pathology by triphenyl-tetrazolium-chloride (TTC) and phthalo blue staining and expressed as a percentage of the myocardium at risk.
For the 60-mg/kg dose, OLT1177™ (13 mg/vial) was diluted in 0.65 ml of 0.9% of normal saline solution to reach a concentration of 20 mg/ml. For the 6 mg/kg dose, the 20 mg/ml dose was diluted 10 times (0.1 ml OLT1177™ […]+0.9 ml 0.9% normal saline) to reach a final concentration of 2 mg/ml. For the 600 mg/kg dose, each vial of OLT1177™ (13 mg/vial) was diluted with 0.1 ml of saline, to reach a final concentration of 130 mg/ml. The content of multiple vials was combined. Each respective tube was subjected to a vortex and heating at 37° C. until complete dissolution of the drug substance.
Male mice were dosed with OLT1177™ by the intraperitoneal route at dose levels of 6, 60, or 600 mg/kg (each approximately 33 g mouse received 100 μl of the dosing solution; 150 μl for the higher dose) after the reperfusion was confirmed (Study Part A). In Part B, 60 mg/kg OLT1177™ was injected (100 μl of the dosing solution per mouse) with a delay of 60, 120 or 180 minutes from the time of reperfusion.
Adult out-bred male CD1 mice (8-10 weeks of age) were supplied by Envigo (Indianapolis, IN). A single operator performed all surgeries. Experimental AMI was induced by transient coronary artery ligation for 30 minutes to induce ischemia of the anterior wall and the apex (visible as pallor) followed by reperfusion, and leading to an infarct involving approximately 15% of the left ventricle. Mice were deeply sedated with sodium pentobarbital (70 mg/kg), intubated using a 23 G catheter and placed in the right lateral decubitus. The mice were shaved and the skin was cleaned with povidone solution and isopropyl alcohol. The mice were then connected to a ventilator and a left thoracotomy was performed followed by pericardiectomy and ligation of the proximal left coronary artery. A 1-mm diameter polyethylene tube was inserted inside the ligature knot, secured and left in place to obstruct the coronary flow for 30 minutes. At the end of the ischemic time, the tube was removed and the coronary flow re-establishment was observed. At this time, OLT1177™ at a dose of 6, 60 or 600 mg/kg, or the normal saline (0.9% NaCl) used as vehicle (0.1 ml of total volume) was injected into the peritoneal cavity after the reperfusion was confirmed (Part A). After closure of the thoracic access, the mice were left to recover for 24 hours. Pain management was achieved using buprenorphine (Buprenorphine SR™ Lab, 0.5 mg/kg) injected subcutaneously. For Study Part B, groups of mice were injected with 60 mg/kg of OLT1177™ after 60, 120 or 180 minutes from the moment of reperfusion.
Before sacrifice (24 hours after reperfusion), the mice underwent transthoracic echocardiography under mild anesthesia with sodium pentobarbital (50 mg/kg). Echocardiography was performed with the Vevo770 Imaging System (VisualSonics Inc, Toronto, Ontario, Canada) and a 30 MHz probe. The heart was visualized in B-mode from the parasternal short axis and apical views. The left ventricular (LV) end-diastolic diameter (LVEDD) and LV end-systolic diameters (LVESD) at M-Mode were measured. […]

[1] = 6 mg/kg IP at time of reperfusion (Group 2)
[2] = 60 mg/kg IP administered at 60 minutes (Group 5)
[3] = 60 mg/kg IP administered at 120 minutes (Group 6)
[4] = 60 mg/kg IP at time of reperfusion (Group 3)
[5] = 60 mg/kg IP, Group 7 (N = 4), head prints Administered at 120 Minutes
[6] = 60 mg/kg IP, treatment delay of 60 or 120 minutes, p<0.01
[7] = 600 mg/kg IP at time of reperfusion (Group 4)
[8] = all doses (6, 60, 600 mg/kg) at reperfusion, 24 h after reperfusion, p<0.05

CS(=O)(=O)CCC#N [OLT1177™, 3-methanesulfonyl-propionitrile]
Infarct size, Change (%) relative to saline group [1]: −36% | AWDT, mean [1]: 0.79 mm | AWST, mean [1]: 1.10 mm | LVEDD, mean [1]: 3.71 mm | LVEF, mean [1]: 61.4% | LVESD, mean [1]: 2.52 mm | LVFS, mean [1]: 32.2% | PWDT, mean [1]: 0.86 mm | PWST, mean [1]: 1.12 mm | Infarct size, mean (6 mg/kg IP single dose at time of reperfusion (Group 2)): 9.9% | infarct size (in words) (60 mg/kg IP administered 120 or 180 minutes after reperfusion): not significantly altered | AWDT, mean [2]: 0.85 mm | AWST, mean [2]: 1.18 mm | LVEDD, mean [2]: 4.00 mm | LVEF, mean [2]: 65.3% | LVESD, mean [2]: 2.59 mm | LVFS, mean [2]: 35.5% | PWDT, mean [2]: 0.89 mm | PWST, mean [2]: 1.33 mm | Infarct size, mean (60 mg/kg IP administered at 60 minutes after reperfusion (Group 5)): 4.4% | AWDT, mean [3]: 0.83 mm | AWST, mean [3]: 1.20 mm | LVEDD, mean [3]: 4.07 mm | LVEF, mean [3]: 63.6% | LVESD, mean [3]: 2.68 mm | LVFS, mean [3]: 34.1% | PWDT, mean [3]: 0.87 mm | PWST, mean [3]: 1.26 mm | Infarct size, mean (60 mg/kg IP administered at 120 minutes after reperfusion (Group 6)): 11.1% | Infarct size, mean (60 mg/kg IP administered at 180 minutes after reperfusion (Group 7)): 15.4% | reducing infarct size and preserving LV function, compared with treatment given with no delay (60 mg/kg IP after a 60 minutes delay after reperfusion): equally effective | Infarct size, Change (%) relative to saline group [4]: −67% | AWDT, mean [4]: 0.82 mm | AWST, mean [4]: 1.25 mm | LVEDD, mean [4]: 4.25 mm | LVEF, mean [4]: 59.3% | LVESD, mean [4]: 2.93 mm | LVFS, mean [4]: 31.0% | PWDT, mean [4]: 0.86 mm | PWST, mean [4]: 1.24 mm | Infarct size, mean (60 mg/kg IP single dose at time of reperfusion (Group 3)): 5.1% | AWDT, mean [5]: 0.95 mm | AWST, mean [5]: 1.22 mm | LVEDD, mean [5]: 3.88 mm | LVEF, mean [5]: 51.5% | LVESD, mean [5]: 2.87 mm | LVFS, mean [5]: 26.0% | PWDT, mean [5]: 0.94 mm | PWST, mean [5]: 1.31 mm | LV ejection fraction in comparison to vehicle-treated mice (in words) [6]: significantly improved | LV fractional shortening in comparison to vehicle-treated mice (in words) [6]: significantly improved | drop in fractional shortening (in words) (60 mg/kg IP, treatment delay of 180 minutes): failed to prevent the drop | Infarct size, Change (%) relative to saline group [7]: −61% | AWDT, mean [7]: 0.77 mm | AWST, mean [7]: 1.06 mm | LVEDD, mean [7]: 3.76 mm | LVEF, mean [7]: 61.6% | LVESD, mean [7]: 2.54 mm | LVFS, mean [7]: 33.0% | PWDT, mean [7]: 0.83 mm | PWST, mean [7]: 1.14 mm | Infarct size, mean (600 mg/kg IP single dose at time of reperfusion (Group 4)): 6.0% | infarct size vs vehicle (in words) (6, 60 and 600 mg/kg single IP injection at time of reperfusion, p<0.001): significant reduction | LV ejection fraction relative to vehicle control (in words) [8]: significantly higher | LV fractional shortening relative to vehicle control (in words) [8]: significantly higher | decrease in mean infarct size compared to the vehicle control (high dose 600 mg/kg IP at time of reperfusion): more than 60% | decrease in infarct size compared to the vehicle control (low dose 6 mg/kg IP at time of reperfusion): 36% | decrease in mean infarct size compared to the vehicle control (mid dose 60 mg/kg IP at time of reperfusion): more than 60%
